The values that follow come from patent publication US7101878B1 (Agouron Pharmaceuticals, Inc., priority 1998, dated 2006).

Data set [1] can be described thus: Metabolism rate, pmol/min/mg at 1 μM, rat male. The class given is in vitro ADME. The conditions noted are these: 1 μM compound.
In data set [2] the target is T1, rat GnRH receptor (Rattus norvegicus, UniProt P30969).
T1 sequence (P30969 1-327): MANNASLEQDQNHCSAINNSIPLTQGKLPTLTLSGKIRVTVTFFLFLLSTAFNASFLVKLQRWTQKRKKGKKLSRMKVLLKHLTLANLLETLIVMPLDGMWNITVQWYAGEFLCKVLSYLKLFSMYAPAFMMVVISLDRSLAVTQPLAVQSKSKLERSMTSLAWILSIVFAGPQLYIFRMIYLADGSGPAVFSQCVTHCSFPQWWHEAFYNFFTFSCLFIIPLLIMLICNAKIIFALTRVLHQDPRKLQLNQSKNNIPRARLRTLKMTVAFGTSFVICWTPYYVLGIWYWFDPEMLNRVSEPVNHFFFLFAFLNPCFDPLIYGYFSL
As to the kind of experiment: Radioligand binding, 125I-GnRH-A, rat pituitary membranes. Set-up: membranes were prepared from rat pituitary; from tissue; host or cells: rat pituitary. To be noted: read-out: rGnRH IC50. How it is done:
All compounds were diluted in 1% DMSO (final assay concentration) in binding assay buffer. […] Reactions were terminated by rapid filtration onto 96-well Packard GF/C filters soaked in 0.1% polyethyleneimine. Filters were washed three times with PBS buffer, dried and counted on a Packard Topcount by liquid scintillation counting.
Assay conditions were identical for assessing compound activities at other species. […] IC50 values for control peptides and test compounds were calculated utilizing GraphPad Prism™ software.
The reaction mixture was vortexed and incubated for 1 min at room temperature. After one min, the mixture was vortexed and allowed to incubate for an additional minute. 2 ml of 0.5 M acetic acid/1% BSA was added to the reaction tube and the mixture was added to a C18 Sep-Pak cartridge. The cartridge was washed with subsequent washes of 5 ml H2O and 5 ml 0.5M acetic acid and then eluted with 5×1 ml of 60% CH3CN/40% 0.5M acetic acid. The eluate was diluted with 3× volume of HPLC buffer A (0.1% TFA in H2O) and loaded onto a C18 column. […] The radioactive fractions (750 ed/fraction) are collected into clean polypropylene tubes containing 100 μl of 10% BSA. Fractions were assessed for biological activity by radioligand binding.

Data set [3] has as its target T2, human GnRH receptor (Homo sapiens, UniProt P30968).
T2 construct: expressed in transfected cells; host or cells: HEK 293 (hGnRH-R/293, from Dr. Stuart Sealfon)
T2 sequence (P30968 1-328): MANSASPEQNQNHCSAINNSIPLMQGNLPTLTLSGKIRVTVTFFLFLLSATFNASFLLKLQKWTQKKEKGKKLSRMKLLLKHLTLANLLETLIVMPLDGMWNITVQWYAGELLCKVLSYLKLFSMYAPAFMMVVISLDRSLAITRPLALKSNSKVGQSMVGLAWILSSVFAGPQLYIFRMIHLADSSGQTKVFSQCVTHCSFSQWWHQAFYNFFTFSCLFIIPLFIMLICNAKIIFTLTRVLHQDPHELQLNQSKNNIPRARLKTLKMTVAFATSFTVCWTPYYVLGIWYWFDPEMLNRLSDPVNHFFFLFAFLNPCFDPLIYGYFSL
Description: Radioligand binding, 125I-GnRH-A displacement, membranes of HEK 293 cells with human GnRH receptor. The conditions noted are these: read-out: hGnRH IC50. A digest of the protocol:
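Bound tracer was separated by filtration through polyethyleneimine-soaked GF/C filters and counted by liquid scintillation. IC50 from curve fitting; other species were tested under the same conditions.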

Data set [4] in a line: Metabolism rate, pmol/min/mg at 1 μM, human. The class given is in vitro ADME. To be noted: 1 μM compound.
The target in data set [5] is T3, mouse GnRH receptor (Mus musculus, UniProt Q01776).
T3 construct: expressed in transfected cells; host or cells: 293 cells
T3 sequence (Q01776 1-327): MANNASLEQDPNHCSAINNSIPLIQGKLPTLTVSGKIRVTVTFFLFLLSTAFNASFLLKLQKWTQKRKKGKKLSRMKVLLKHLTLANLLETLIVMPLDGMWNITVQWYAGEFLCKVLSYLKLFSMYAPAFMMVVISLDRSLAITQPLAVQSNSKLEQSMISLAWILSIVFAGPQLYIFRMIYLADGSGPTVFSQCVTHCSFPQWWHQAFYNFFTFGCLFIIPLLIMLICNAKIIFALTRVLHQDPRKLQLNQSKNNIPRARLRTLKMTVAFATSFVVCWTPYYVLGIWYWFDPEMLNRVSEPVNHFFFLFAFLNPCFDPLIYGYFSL
As to the kind of experiment: Radioligand binding, 125I-GnRH-A, 293 cells expressing mouse GnRH receptors. To be noted: read-out: mGnRH IC50. Summed up:
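Bound label captured on 0.1% polyethyleneimine-treated GF/C filters, washed three times with PBS, counted. IC50 derived; identical set-up for every species.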

Data set [6] has as its system LH levels in castrated rats. As to the kind of experiment: Castrated male rat model, LH suppression. The class given is in vivo. From the text: Experimental Protocol: Male Sprague-Dawley (225-250 g) rats were castrated and allowed 10 days postoperative recovery. Ten days post castration animals were instrumented with indwelling femoral venous and arterial catheters to facilitate remote infusions and blood sampling. On the day of the experiment, animals were allowed to acclimate to the procedure room while residing in their home cage. Basal blood samples were drawn from all animals. Following basal sampling, either vehicle (10% DMSO, 10% cremophor/saline), Antide (1.0 μg) or compound 11 (10 mg/kg) was administered intravenously. Blood samples were drawn 10, 60, 90, 120, 180, 240 minutes after injections. Blood was centrifuged, serum collected and stored in −70° freezer until assayed. Serum samples were analyzed using DSL-4600 ACTIVE LH coated-tube immunoradiometric assay kit from Diagnostic Systems Laboratories, Inc.
Surgical removal of the gonads removes circulating testosterone and eliminates the negative feedback of testosterone on the hypothalamus. […] This model seems suitable for evaluating small molecule GnRH antagonists.
Male Sprague-Dawley ([…]) rats were castrated via the scrotal approach under halothane anesthesia. Animals were allowed 14 days post operative recovery prior to study. Thirteen days following castration, animals were anesthetized with halothane and instrumented with indwelling jugular vein cannula. Details of the cannulation procedure have been described previously {Harms and Ojeda, 1974)}. On study day, animals were allowed to acclimate to the procedure room while residing in their home cage. Basal blood samples were drawn from all animals. Immediately following basal sampling, vehicle or test compounds were administered by various routes. The routes of administration employed were intravenous (iv), intramuscular (im), intraperitoneal (ip), subcutaneous (sc) and oral (po). Blood samples were drawn into heparin containing tubes at multiple time points post treatment. Blood was centrifuged immediately, plasma collected and stored in −20° freezer until assayed. Plasma samples were analyzed using DSL-4600 ACTIVE LH coated-tube immunoradiometric assay kit from Diagnostic Systems Laboratories, Inc.
Formulation #1 (denoted with superscript 1): 10% DMSO, 10% Cremophor EL and 80% physiological saline.
Formulation #2 (denoted with superscript 2): 10% Cremophor EL and 90% physiological saline.

A short description of data set [7]: Pharmacokinetic studies / bioavailability in rats. The class given is in vivo, rat. To be noted: for Cmax / Tmax / half-life: female, rat, plasma; for Cmax / Tmax: po, 10 mg/kg, p.o. 10 mg/kg.
Where [8] appears, read: rat female, 5 mg/ml solution in 10% DMSO 10% cremophor 80% saline.

As to `COC(=O)[C@H]1CC[C@H](CNC(=O)c2ccc(Cc3cc4c(cc3C)C(C)(C)CCC4(C)C)o2)CC1` [Compound 68], the “Rat male pmol/min/mg 1 μM” value in data set [1] turned out to be 8125 pmol/min/mg. Also, the half-inhibitory concentration (IC50) in data set [2] was 0.89 µM; in data set [3] it was 0.09 µM; in data set [5] it was 1.01 µM. The “Human pmol/min/mg 1 μM” value in data set [4] amounted to 2716 pmol/min/mg.
The like results for `Cc1cc2c(cc1Cc1ccc(C(=O)NCC3CCC(CNc4nccc(NCC5CCCO5)n4)CC3)o1)C(C)(C)CCC2(C)C` (stereo not drawn) [Compound 92] were, in that order, 1282 pmol/min/mg, 0.027 µM, 0.08 µM, 0.042 µM and 241 pmol/min/mg.
As for `Cc1cc2c(cc1Cc1ccc(C(=O)NCc3cccc4ccccc34)o1)C(C)(C)CCC2(C)C` [Compound 95], in data set [1], the “Rat male pmol/min/mg 1 μM” value stood at 3356 pmol/min/mg. Moreover, the half-maximal inhibitory concentration (IC50) in data set [2] is 0.06 µM; in data set [3], 0.031 µM; in data set [5], 0.021 µM. In data set [4], the “Human pmol/min/mg 1 μM” value was determined as 283 pmol/min/mg.
With `Cc1cc2c(cc1Cc1ccc(C(=O)Nc3cccc(B(O)O)c3)o1)C(C)(C)CCC2(C)C` [Compound 119], the IC50 in data set [2] turned out to be 1.3 µM. Moreover, the “% Max LH Suppression” value in data set [6] (5.0 mg/kg iv) is 63%; in data set [6] (10 mg/kg iv) it was 61%; in data set [6] (20 mg/kg ip) it was 79%; in data set [6] (20 mg/kg po) it was 63%. The “time of % Max LH Suppression” value in data set [6] (5.0 mg/kg iv) amounted to 1 h; in data set [6] (10 mg/kg iv), 1 h; in data set [6] (20 mg/kg ip), 2 h; in data set [6] (20 mg/kg po), 2 h. Besides, the “≧50% Suppression Duration” value stood at 1 h in data set [6] (5.0 mg/kg iv), 1 h in data set [6] (10 mg/kg iv), 2 h in data set [6] (20 mg/kg ip) and 2 h in data set [6] (20 mg/kg po). The “Range of Plasma Conc.” value in data set [6] (20 mg/kg po) was 0.1 µM; in data set [6] (20 mg/kg sc), 0.2 µM.
As to `COc1cccc(OC)c1NC(=O)c1ccc(Cc2c(C)cc(C)cc2C)o1` [Compound 126], in data set [2], the concentration for half-maximal inhibition (IC50) was determined as 0.325 µM. Also, the IC50 in data set [3] stood at 0.128 µM. For the same molecule, in data set [7] (setting [8]), the Cmax was found to be 20 nM, the Tmax was 0.5 h and the Fp.o. was 2% (10 mg/kg)^10. The same molecule had a half-life in data set [7] (rat female) of 1.9 h. Moreover, the “Human pmol/min/mg 1 μM” value in data set [4] is given as 544 pmol/min/mg. In data set [5], the 50% inhibitory concentration (IC50) was found to be 0.684 µM.
With `COc1cc(OC)c(C(C)=O)cc1NC(=O)c1ccc(Cc2cc3c(cc2C)C(C)(C)CCC3(C)C)o1` [Compound 170], the IC50 in data set [2] was found to be 0.03 µM; in data set [3], 0.05 µM; in data set [5], 0.022 µM. In addition, in data set [7] (rat male, p.o. 20 mg/kg, vehicle per footnote (DMSO/cremophor/saline)), the Fp.o. is listed as 0 (20 mg/kg)^7%.
`COc1cc(OC)c(NC(=O)c2ccc(Cc3cc(C)cc4c3OCCC4(C)C)o2)c(OC)c1` [Compound 190.5]: in data set [3], the 50% inhibitory concentration (IC50) came out at 0.35 µM. Besides, the “Human pmol/min/mg 1 μM” value in data set [4] is reported as 1124 pmol/min/mg.
As to `COc1cc(OC)c(NC(=O)c2ccc(Cc3cc(C(C)(C)C)ccc3OC)o2)c(OC)c1` [Compound 203], the IC50 in data set [2] stood at 0.058 µM; in data set [3], 0.13 µM; in data set [5], 0.062 µM.
The like results for `CCC(C)(C)c1ccc(OC)c(Cc2ccc(C(=O)Nc3c(OC)cccc3OC)o2)c1` [Compound 231] were, in that order, 0.051 µM, 0.005 µM and 0.024 µM.
The like results for `CCC(C)(C)c1ccc(OC)c(Cc2ccc(C(=O)Nc3c(OC)cc(OC)cc3OC)o2)c1` [Compound 232] were, in that order, 0.0057 µM, 0.019 µM and 0.009 µM.
For `COc1cc(OC)c(NC(=O)c2ccc(Cc3c(OC)cc(C)c(Cl)c3C)o2)c(OC)c1` [Compound 299], the 50% inhibitory concentration (IC50) in data set [2] was found to be 0.29 µM. Besides, the concentration for half-maximal inhibition (IC50) in data set [3] worked out at 0.08 µM. In addition, in data set [7] (setting [8]), the highest level (Cmax) was 1740 nM, the time of peak concentration (Tmax) came out at 1 h and the Fp.o. is on record as 72% (10 mg/kg)^10. In data set [7] (rat female), this molecule gave a half-life of 2.4 h. In addition, the IC50 in data set [5] was determined as 0.105 µM.
Regarding `COc1cc(OC)c(NC(=O)c2ccc(Cc3cc(-c4ccccc4)c(C)cc3C)o2)c(OC)c1` [Compound 302], the concentration for half-maximal inhibition (IC50) in data set [2] was determined as 0.22 µM; in data set [3] it was 0.167 µM; in data set [5] it was 0.119 µM.
